# Results from patent US4473497A, “Pharmacologically active peptides” (Eli Lilly and Company, priority 1983, dated 1984).
# Assays:
# [1] = tested on: mouse (Harlan ND4); experiment: mouse hot plate test (Mouse Jump test); assay type: in vivo; conditions: subcutaneous injection, 15 minutes after administration, hot plate 55° C., latency to jump
# Experimental: In the mouse hot plate test, an upright acrylic cylinder comprising, as its base, a hot plate surface which is maintained at 55° C. is used. A mouse (Harlan ND4) is given, by subcutaneous injection, a predetermined amount of test compound dissolved or suspended in a suitable carrier, and, 15 minutes after administration of the test compound, the mouse is placed on the hot plate surface. The latency in seconds until the mouse jumps from the hot plate surface is measured. […] This must occur in a dose range which produces no motor incoordination or incapacitation. The following Table records ED50 results obtained from this test. By the term "ED50 " is meant that dose which produces analgesia in 50% of the mice tested. Analgesia is defined as a response latency in the presence of test compound that is equal to or greater than the control response latency plus two standard deviations. The percent analgesia data are converted to probits, and the ED50 is calculated by regression analysis of the dose-response data. Each dose response curve must have at least four points, and each point is determined using data from a minimum of ten treated mice and ten control mice.
# [2] = tested on: Cox Standard albino mice; experiment: mouse writhing test (acetic acid induced); assay type: in vivo; conditions: 0.6% acetic acid i.p.
# Experimental: In the mouse writhing test, a writhing response is defined as a contraction of the abdominal musculature followed by extension of the hind limbs. Acetic acid administered intraperitoneally (10 ml./kg.) at a concentration of 0.6% was used to induce a writhing response. Five Cox Standard albino mice weighing 20-22 g. after being fasted overnight were observed simultaneously for the writhing response. Each mouse was used only once. The observation period was ten minutes and started five minutes following administration of the acetic acid. Inhibition of mouse writhing was calculated from the total number of writhes in the control and test compound-treated groups according to the following formula: [formula]
# The dose required to reduce the frequency of writhing by 50% is defined as the ED50 and is calculated by "The Use of Regression Line in Reverse", [Brownlee, K. A., Statistical Theory and Methodology in Science and Engineering, 2nd Ed., New York, John Wiley and Sons (1965)].
substance,measurement,setting,value
"L-(N-Methyl)tyrosyl-D-alanylglycine, [N-ethyl-N-(1-benzyl-2-dimethyloxidoamino)ethyl] amide, Diacetate Salt",ED50 in the Mouse Jump test (dose which produces analgesia in 50% of the mice),[1],0.0025 mg/kg
same,ED50 in the Mouse Writhing test (dose reducing frequency of writhing by 50%),[2]; oral administration,5.6 mg/kg
same,ED50 in the Mouse Writhing test (dose reducing frequency of writhing by 50%),[2]; subcutaneous administration,0.1 mg/kg
